Measured values taken from US12522601B2, “1,3,4-oxadiazole derivative compounds as histone deacetylase 6 inhibitor, and the pharmaceutical composition comprising the same” (CHONG KUN DANG PHARMACEUTICAL CORP., priority 2020, dated 2026).

Experiments:
[1] = target: T1, human recombinant HDAC6 (Homo sapiens, UniProt Q9UBN7); assay: In vitro HDAC enzyme activity inhibition assay, HDAC6 (HDAC Fluorimetric Drug Discovery Kit); assay type: biochemical; conditions: for HDAC6 Selectivity (fold): HDAC6 versus HDAC1; for IC50: human recombinant HDAC6, same protocol as the HDAC1 test
T1 construct: purchased Calbiochem Inc. 382180
T1 sequence (Q9UBN7 1-1215): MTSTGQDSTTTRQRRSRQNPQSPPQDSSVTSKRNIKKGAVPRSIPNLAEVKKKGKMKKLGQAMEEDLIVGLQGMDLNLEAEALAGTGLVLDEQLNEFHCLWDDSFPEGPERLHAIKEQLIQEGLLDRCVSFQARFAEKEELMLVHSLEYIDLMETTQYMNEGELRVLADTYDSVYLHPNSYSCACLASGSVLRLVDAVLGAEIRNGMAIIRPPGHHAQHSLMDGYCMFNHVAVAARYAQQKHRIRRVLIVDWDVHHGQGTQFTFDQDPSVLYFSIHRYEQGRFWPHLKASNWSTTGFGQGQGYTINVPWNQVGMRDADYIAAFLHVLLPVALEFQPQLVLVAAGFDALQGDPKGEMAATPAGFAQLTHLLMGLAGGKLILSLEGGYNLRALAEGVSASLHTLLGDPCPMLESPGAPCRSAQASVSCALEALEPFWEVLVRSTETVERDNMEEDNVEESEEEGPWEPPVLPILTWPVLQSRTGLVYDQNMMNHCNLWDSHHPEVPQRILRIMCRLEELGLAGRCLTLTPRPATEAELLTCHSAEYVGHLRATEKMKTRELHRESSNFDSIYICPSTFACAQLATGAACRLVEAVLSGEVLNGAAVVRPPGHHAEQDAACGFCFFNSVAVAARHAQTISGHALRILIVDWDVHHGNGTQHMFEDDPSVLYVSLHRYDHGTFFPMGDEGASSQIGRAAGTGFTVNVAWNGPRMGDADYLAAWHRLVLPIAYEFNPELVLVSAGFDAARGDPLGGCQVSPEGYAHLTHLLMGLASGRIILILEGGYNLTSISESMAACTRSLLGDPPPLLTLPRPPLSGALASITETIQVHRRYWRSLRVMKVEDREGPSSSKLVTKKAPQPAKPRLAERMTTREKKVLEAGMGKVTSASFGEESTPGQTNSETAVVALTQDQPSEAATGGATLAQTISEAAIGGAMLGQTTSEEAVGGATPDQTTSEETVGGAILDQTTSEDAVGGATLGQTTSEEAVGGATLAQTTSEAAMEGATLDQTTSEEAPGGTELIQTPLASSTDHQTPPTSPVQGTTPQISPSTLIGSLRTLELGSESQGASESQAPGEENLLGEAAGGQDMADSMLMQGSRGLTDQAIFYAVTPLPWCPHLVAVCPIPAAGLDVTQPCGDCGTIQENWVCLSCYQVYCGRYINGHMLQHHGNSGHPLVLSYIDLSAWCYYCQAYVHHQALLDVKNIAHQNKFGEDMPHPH
Procedure, shortened: (§1)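 Fluorimetric deacetylase kit; 0.3 μg human recombinant enzyme with 10 μM Fluor de Lys-SIRT1 substrate, 60 min at 30° C, then developer 30 min. Fluorescence read at Ex 360/Em 460; IC50 from 5-fold compound dilutions. HDAC1 and HDAC6 run by the same protocol.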

[2] = target: T2, human recombinant HDAC1 (Homo sapiens, UniProt Q13547); assay: In vitro HDAC enzyme activity inhibition assay, HDAC1 (HDAC Fluorimetric Drug Discovery Kit); assay type: biochemical; conditions: human recombinant HDAC1, Fluor de Lys-SIRT1 substrate 10 μM, 30° C. for 60 minutes
T2 construct: purchased Enzo Life Sciences, Inc. BML-SE456
Procedure, shortened: as §1

T2 sequence (Q13547 whole entry): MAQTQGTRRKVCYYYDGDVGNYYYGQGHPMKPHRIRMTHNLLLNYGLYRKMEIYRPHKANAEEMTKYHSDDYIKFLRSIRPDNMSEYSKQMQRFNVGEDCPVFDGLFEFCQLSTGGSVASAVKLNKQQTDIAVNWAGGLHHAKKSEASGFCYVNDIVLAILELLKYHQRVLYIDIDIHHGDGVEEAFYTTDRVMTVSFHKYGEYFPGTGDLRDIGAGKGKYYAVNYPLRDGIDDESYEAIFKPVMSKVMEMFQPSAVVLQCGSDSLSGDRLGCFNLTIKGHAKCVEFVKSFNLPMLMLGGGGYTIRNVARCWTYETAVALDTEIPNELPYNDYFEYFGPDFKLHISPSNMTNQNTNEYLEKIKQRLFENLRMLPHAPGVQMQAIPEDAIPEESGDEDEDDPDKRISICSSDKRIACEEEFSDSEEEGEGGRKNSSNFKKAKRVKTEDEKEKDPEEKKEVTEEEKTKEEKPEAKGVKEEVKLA

| Structure (SMILES) | HDAC6 Selectivity (fold) [1] [fold] | IC50 [1] [nM] | IC50 [2] [nM] |
| --- | --- | --- | --- |
| COC(=O)N1CCN(C(=O)N(Cc2cn3ccc(-c4nnc(C(F)F)o4)cc3n2)c2cccc(F)c2)CC1 [Compound 4098, methyl 4-(((7-(5-(difluoromethyl)-1,3,4-oxadiazol-2-yl)imidazo[1,2-a]pyridin-2-yl)methyl)(3-fluorophenyl)carbamoyl)piperazine-1-carboxylate] | 325 | 154 | > 50000 |
| CN1CCN(C(=O)N(Cc2cn3ccc(-c4nnc(C(F)F)o4)cc3n2)c2ccccc2)CC1 [Compound 3784, N-((7-(5-(difluoromethyl)-1,3,4-oxadiazol-2-yl)imidazo[1,2-a]pyridin-2-yl)methyl)-4-methyl-N-phenylpiperazine-1-carboxamide] | 727 | 68.8 | > 50000 |
| CC(=O)c1cccc(NCc2cn3ccc(-c4nnc(C(F)F)o4)cc3n2)c1 [Compound 3669] | 426 | 117 | > 50000 |
| CC(CO)N1CCC(C(=O)N(Cc2cn3ccc(-c4nnc(C(F)F)o4)cc3n2)c2ccccc2)CC1 (stereo not drawn) [Compound 4117, N-((7-(5-(difluoromethyl)-1,3,4-oxadiazol-2-yl)imidazo[1,2-a]pyridin-2-yl)methyl)-1-(1-hydroxypropan-2-yl)-N-phenylpiperidine-4-carboxamide] | 133 | 377 | > 50000 |
| CS(=O)(=O)N1CCN(C(=O)N(Cc2cn3ccc(-c4nnc(C(F)F)o4)cc3n2)c2ccccc2)CC1 [Compound 4045, N-((7-(5-(difluoromethyl)-1,3,4-oxadiazol-2-yl)imidazo[1,2-a]pyridin-2-yl)methyl)-4-(methylsulfonyl)-N-phenylpiperazine-1-carboxamide] | 392 | 128 | > 50000 |
| O=C(C1CCC1)N1CC(C(=O)N(Cc2cn3ccc(-c4nnc(C(F)F)o4)cc3n2)c2cccc(F)c2)C1 [Compound 4200, 1-(cyclobutanecarbonyl)-N-((7-(5-(difluoromethyl)-1,3,4-oxadiazol-2-yl)imidazo[1,2-a]pyridine-2-yl)methyl)-N-(3-fluorophenyl) azetidine-3-carboxamide] | 228 | 220 | > 50000 |
| CC(C)N1CCN(C(=O)N(Cc2cn3ccc(-c4nnc(C(F)F)o4)cc3n2)c2cccc(F)c2)CC1 [Compound 4085, N-((7-(5-(difluoromethyl)-1,3,4-oxadiazol-2-yl)imidazo[1,2-a]pyridin-2-yl)methyl)-N-(3-fluorophenyl)-4-isopropylpiperazine-1-carboxamide] | 233 | 214 | > 50000 |
| O=C(C1CCN(C2CCOCC2)CC1)N(Cc1cn2ccc(-c3nnc(C(F)F)o3)cc2n1)c1ccccc1 [Compound 4120, N-((7-(5-(difluoromethyl)-1,3,4-oxadiazol-2-yl)imidazo[1,2-a]pyridin-2-yl)methyl)-N-phenyl-1-(tetrahydro-2H-pyran-4-yl)piperidine-4-carboxamide] | 98 | 509 | > 50000 |
| O=C(C1CCN(c2ncccn2)CC1)N(Cc1cn2ccc(-c3nnc(C(F)F)o3)cc2n1)c1ccccc1 [Compound 4132, N-((7-(5-(difluoromethyl)-1,3,4-oxadiazol-2-yl)imidazo[1,2-a]pyridin-2-yl)methyl)-N-phenyl-1-(pyrimidin-2-yl)piperidine-4-carboxamide] | 76 | 655 | > 50000 |
| CC(CO)N1CCN(C(=O)N(Cc2cn3ccc(-c4nnc(C(F)F)o4)cc3n2)c2ccccc2)CC1 (stereo not drawn) [Compound 4035, N-((7-(5-(difluoromethyl)-1,3,4-oxadiazol-2-yl)imidazo[1,2-a]pyridin-2-yl)methyl)-4-(1-hydroxypropan-2-yl)-N-phenylpiperazine-1-carboxamide] | 168 | 298 | > 50000 |
| CCC(=O)N1CC(C(=O)N(Cc2cn3ccc(-c4nnc(C(F)F)o4)cc3n2)c2ccccc2)C1 [Compound 4168, N-((7-(5-(difluoromethyl)-1,3,4-oxadiazol-2-yl)imidazo[1,2-a]pyridin-2-yl)methyl)-N-phenyl-1-propionylazetidine-3-carboxamide] | 125 | 400 | > 50000 |
| CN1CCC(C(=O)N(Cc2cn3ccc(-c4nnc(C(F)F)o4)cc3n2)c2ccccc2)CC1 [Compound 3782, N-((7-(5-(difluoromethyl)-1,3,4-oxadiazol-2-yl)imidazo[1,2-a]pyridin-2-yl)methyl)-1-methyl-N-phenylpiperidine-4-carboxamide] | 740 | 67.6 | > 50000 |
| O=C(N1CCN(c2ncccn2)CC1)N(Cc1cn2ccc(-c3nnc(C(F)F)o3)cc2n1)c1ccccc1 [Compound 4049, N-((7-(5-(difluoromethyl)-1,3,4-oxadiazol-2-yl)imidazo[1,2-a]pyridin-2-yl)methyl)-N-phenyl-4-(pyrimidin-2-yl)piperazine-1-carboxamide] | 539 | 92.8 | > 50000 |
| FC(F)c1nnc(-c2ccn3cc(CNc4ccccc4)nc3c2)o1 [Compound 3668, N-((7-(5-(difluoromethyl)-1,3,4-oxadiazol-2-yl)imidazo[1,2-a]pyridin-2-yl)methyl)aniline] | 299 | 167 | > 50000 |
| CC(=O)N1CCN(C(=O)N(Cc2cn3ccc(-c4nnc(C(F)F)o4)cc3n2)c2ccccc2)CC1 [Compound 4040, 4-acetyl-N-((7-(5-(difluoromethyl)-1,3,4-oxadiazol-2-yl)imidazo[1,2-a]pyridin-2-yl)methyl)-N-phenylpiperazine-1-carboxamide] | 421 | 119 | > 50000 |
| O=C(C1CCN(C(=O)C(F)(F)F)CC1)N(Cc1cn2ccc(-c3nnc(C(F)F)o3)cc2n1)c1cccc(F)c1 [Compound 4152, N-((7-(5-(difluoromethyl)-1,3,4-oxadiazol-2-yl)imidazo[1,2-a]pyridin-2-yl)methyl)-N-(3-fluorophenyl)-1-(2,2,2-trifluoroacetyl)piperidine-4-carboxamide] | 245 | 204 | > 50000 |
| O=C(C1COC1)N1CCN(C(=O)N(Cc2cn3ccc(-c4nnc(C(F)F)o4)cc3n2)c2cccc(F)c2)CC1 [Compound 4103, N-((7-(5-(difluoromethyl)-1,3,4-oxadiazol-2-yl)imidazo[1,2-a]pyridin-2-yl)methyl)-N-(3-fluorophenyl)-4-(oxetan-3-carbonyl)piperazine-1-carboxamide] | 249 | 201 | > 50000 |
| COc1ccc(Cc2cn3ccc(-c4nnc(C(F)F)o4)cc3n2)cc1 [Compound 3590] | 116 | 432 | > 50000 |
| O=C(C1CCN(C2CCC2)CC1)N(Cc1cn2ccc(-c3nnc(C(F)F)o3)cc2n1)c1ccccc1 [Compound 4118, 1-cyclobutyl-N-((7-(5-(difluoromethyl)-1,3,4-oxadiazol-2-yl)imidazo[1,2-a]pyridin-2-yl)methyl)-N-phenylpiperidine-4-carboxamide] | 151 | 332 | > 50000 |
| O=C(N1CCN(c2ncccn2)CC1)N(Cc1cn2ccc(-c3nnc(C(F)F)o3)cc2n1)c1cccc(F)c1 [Compound 4101, N-((7-(5-(difluoromethyl)-1,3,4-oxadiazol-2-yl)imidazo[1,2-a]pyridin-2-yl)methyl)-N-(3-fluorophenyl)-4-(pyrimidin-2-yl)piperazine-1-carboxamide] | 464 | 108 | > 50000 |
